From article PMC9068772, “Discovery of first-in-class nanomolar inhibitors of heptosyltransferase I reveals a new aminoglycoside target and potential alternative mechanism of action” (Scientific Reports, 2022)
≈ marks a conversion by molar mass, not a printed value. Where “and” joins values, the source holds several entries; their conditions need not be identical. Equal entries are not always repeated.

Key:
[1] = target: T1, Heptosyltransferase I (HepI) WT (Escherichia coli, UniProt P24173); assay: HepI inhibition, ADP/NADH coupled assay (wild type); type: biochemical, E. coli K12; settings: for kcat: HepI WT in presence of inhibitor; for Ki: 10 μM ODLA, inhibitor varied; for Type of inhibition with ODLA: excess ADPH, ODLA varied, Lineweaver–Burk, Dixon, Cornish-Bowden; for Type of inhibition against ADPH: excess ODLA, ADPH varied; for ΔG (kcal/mol) Exp: Gibbs equation with Ki as equilibrium constant
T1 construct: made in house; host or cells: E. coli One Shot BL-21-AI
Protocol: (§1) As previously reported[11],[14],[15], an ADP/NADH coupled assay was used to monitor HepI activity by monitoring the absorbance change at 340 nm at 37 °C on a Cary Bio 100 UV–Vis Spectrometer. Under normal conditions, the assay buffer was composed of 50 mM HEPES, 50 mM KCl, 10 mM MgCl2, pH 7.5. The coupled enzyme reaction additionally contained 100 μM phosphoenolpyruvate, 100 μM NADH, 100 μM dithiothreitol (DTT) and 0.05 U/μL of both pyruvate kinase and lactate dehydrogenase. 100 μM ADPH was used when ODLA concentration was varied and 100 μM ODLA was used when ADPH was varied. Once a stable baseline was established (~ 5 min), the reaction was initiated by addition of HepI to a final concentration of 50 nM or 100 nM (for high and lower substrate concentrations respectively) and all reported reaction rates are after background subtraction. When running 12 samples at once, plastic cuvette stirs and a repeat pipettor was used to inject 200 μL enzyme. Inhibition of HepI was monitored using the same ADP/NADH coupled assay, all conditions of the assay were the same as previously described unless otherwise stated. Ki values for each of the compounds were determined by varying compound final concentration from 100 μm to 10 nm, and a final concentration of 10 μM ODLA. Competition assays against ADPH were done with excess ODLA (100 μM) and varying ADPH from 2–0.25 μM. Competition assays against ODLA were done with excess ADPH (100 μM) and varying ODLA from 2–0.25 μM. Reactions were started with addition of enzyme and inhibitor was varied from 30–0.01 μM. Kinetics were fit to Lineweaver-Burke (Eq. 1), competitive (Eq. 2), non-competitive (Eq. 3), mixed (Eq. 4), Dixon (Eq. 5), or Cornish-Bowden (Eq. 6) models. All fitting and plotting was done through MATLAB R2018A.1 1/V1/[S]=KM/Vmax[S]+1/Vmax 2 V[S]=Vmax[S]/KM1+[I]/Ki+[S] 3 V[S]=Vmax[S]/1+([I]/Ki)/KM+[S] 4 V[S]=Vmax[S]/KM(1+[I]/Ki)+[S](1+[I]/αKi) 5 1/V[I]=KM1+I/Ki+[S]1+I/αKi/Vmax[S] 6 [S]/V[I]=KM1+I/Ki+[S]1+I/αKi/Vmax

HepI R60A = target: T2, HepI R60A (Escherichia coli, UniProt P24173, R60A); assay: HepI inhibition, ADP/NADH coupled assay (R60A mutant); type: biochemical, E. coli K12; settings: for ΔΔG (kcal/mol) Exp: Arg60Ala relative to WT; for ΔG (kcal/mol) Exp: Arg60Ala, from Ki; for kcat: HepI R60A in presence of inhibitor
T2 construct: made in house; host or cells: E. coli One Shot BL-21-AI (stated for HepI in general)
Protocol: as §1

[2] = system: capsular polysaccharide (cps) band of E. coli K12 total lipid extract; assay: Capsular polysaccharide band density on silver-stained gels; type: cell-based
Protocol: (§2) The assays were prepared by plating E. coli K12 onto an LB-agar plate and grown overnight (12–18 h)[60]. A colony forming unit was chosen to inoculate 10 mL of fresh LB media in a tightly capped 15 mL falcon tube and placed in an incubator (no agitation) at 37 °C for exactly 24 h to increase the number of viable cells for inoculation of the plate and thusly reproducibility in highly variable growth patterns. A 96-well plate was then filled with a variety of inhibitor concentrations taken from stock solutions made up in ultra-pure water allowing for one row to remain free of the inhibitor. Each inhibitor concentration was given 3-wells to ensure a triplicate of data is collected at once. With the same fresh media used to make the overnight culture, the overnight growths were added to the plate in a 1:1000 dilution (total volume 200 uL) and the plate sealed with clear adhesive plastic sealant. One row has been designated for uncultured media to be used for pre-blanking measurements and to ensure that the media isn’t growing spontaneously.
(§3) As previously established, lipid extraction occurs through lysis of surface polysaccharides with a lysis buffer containing 1% SDS, 20% glycerol, 100 mM Tris–HCl and 0.04% bromophenol blue at a pH 6.8[61]. The cellular concentrations from each well were determined using the last collected OD600 corrected using Eq. (8), centrifuged and resuspended in the correct volume of lysis buffer to obtain 4 × 10^8 cells/100 µL solution. Addition of Proteinase K at 1 mg/mL concentration was incubated for 1 h at 37 °C. These samples were then loaded onto a 15% separating, 6% stacking SDS–polyacrylamide gel (recipes received from https://www.bio-rad.com/) in a 19:1 acrylamide to bis-acrylamide ratio and run with a voltage gradient from 50–150 V. The gels were then stained using the protocol described previously with no modifications[62] and imaged using a scanner.
(§4) Relative LPS band density was determined using analysis methods provided by ImageJ software. The band pixel density were analyzed relative to a purified sample of heptosylated O-deacylated Lipid A at 100 nM. The plot was generated of relative band density vs. concentration of inhibitor[63].

E. coli K12 = assay: Growth challenge assay, 96-well plate; type: cell-based; settings: for Inflection point in cell viability: E. coli K12, growth rate, Fig. 9; for Effect on growth of E. coli K12: increasing concentrations, 18-h period
Protocol: as §2
An experimental protocol was created using the Softmax Pro® software for a Molecular Devices Spectramax M5 plate reader. The parameters have been selected such that it collects pre-blanked absorbance readings at 600 nm wavelengths every 30 min at 37 °C with shaking every 10 min at 400 s intervals for 18 h total. Absorbance values were corrected for path length using the lateral reading path correction (8) and are plotted overtime to establish a growth curve.8 l=4×V/π×d^2 l = path length from Beer’s law ( A=εlc ), V = volume (cm^3), d = diameter of well (cm).
Data from the growth assay were analyzed using MATLAB R2018A. The derivative of the curve was calculated and the maximum rate as determined by the derivative was reported as the growth rate for that condition.

[3] = system: LPS production in E. coli K12; assay: LPS visualization gels of lipid extracts from growth challenge samples; type: cell-based; settings: for Concentration range over which LPS production decreases: E. coli K12, lipids from 4 × 10^8 cells; for IC50: Escherichia coli, E. coli K12, silver-stained gels, inflection point of sigmoid fit, read-out: IC50 of LPS production (LPS band pixel density)
Protocol: as §2, §3, §4

T2 sequence (P24173 whole entry R60A): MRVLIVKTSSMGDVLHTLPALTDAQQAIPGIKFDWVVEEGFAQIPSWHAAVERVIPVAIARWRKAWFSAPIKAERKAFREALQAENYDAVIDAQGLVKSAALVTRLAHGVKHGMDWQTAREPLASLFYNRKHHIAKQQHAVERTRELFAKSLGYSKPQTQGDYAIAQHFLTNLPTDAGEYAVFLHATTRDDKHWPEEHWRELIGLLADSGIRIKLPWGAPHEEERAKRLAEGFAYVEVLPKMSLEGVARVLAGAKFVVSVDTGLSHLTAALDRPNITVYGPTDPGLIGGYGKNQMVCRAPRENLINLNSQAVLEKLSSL
T1 sequence (P24173 whole entry): as the sequence (P24173 whole entry R60A) above, with A60R counted along it

Row | SMILES | kcat [1] [s⁻¹] | Ki ([1]; HepI WT) | Type of inhibition with ODLA ([1]; HepI WT) | Type of inhibition against ADPH ([1]; HepI WT) | ΔG (kcal/mol) Exp ([1]; HepI WT) [kcal/mol] | Ki (HepI R60A) [nM] | ΔΔG (kcal/mol) Exp (HepI R60A) [kcal/mol] | ΔG (kcal/mol) Exp (HepI R60A) [kcal/mol] | kcat (HepI R60A) [s⁻¹] | Inflection point in cell viability (E. coli K12) | Effect on growth of E. coli K12 (E. coli K12) | Concentration range over which LPS production decreases [3] [ng/mL] | IC50 [3] [µg/mL] | also measured
1 | [H]/N=C(/N)N[C@H]1[C@H](O)[C@@H](O)[C@H](O[C@@H]2O[C@@H](C)[C@](O)(C=O)[C@H]2O[C@@H]2O[C@@H](CO)[C@H](O)[C@@H](O)[C@@H]2NC)[C@@H](N/C(N)=N\[H])[C@@H]1O [Streptomycin] | 0.162 ± 0.008 | 595 ± 90 nM | Non-competitive | non-competitive | -8.5 ± 0.1 | 6250 ± 5430 | 1.4 ± 0.4 | -7.1 ± 0.4 | 0.149 ± 0.013 | 25 ng/mL | challenges the growth | 25 to 27.5 | 0.0262 ± 0.001 (≈ 0.045 µM) | Ki relative to WT (HepI R60A; HepI R60A vs WT): increased the Ki values an order of magnitude; Relative pixel density from cps band ([2]; 12.5 ng/mL streptomycin, relative to 0 ng/mL = 1): 1.019; Relative pixel density from cps band ([2]; 15 ng/mL streptomycin): 1.115; Relative pixel density from cps band ([2]; 17.5 ng/mL streptomycin): 1.105; Relative pixel density from cps band ([2]; 20 ng/mL streptomycin): 1.323; Relative pixel density from cps band ([2]; 22.5 ng/mL streptomycin): 1.458; Relative pixel density from cps band ([2]; 25 ng/mL streptomycin): 1.335; Relative pixel density from cps band ([2]; 27.5 ng/mL streptomycin): 1.687; Relative pixel density from cps band ([2]; 30 ng/mL streptomycin): 1.477; Relative pixel density from cps band ([2]; 32.5 ng/mL streptomycin): 1.070; Relative pixel density from cps band ([2]; 35 ng/mL streptomycin): 0.654
2 | NC[C@H]1O[C@H](O[C@H]2[C@H](O)[C@@H](O[C@H]3O[C@H](CO)[C@@H](O)[C@H](N)[C@H]3O)[C@H](N)C[C@@H]2N)[C@H](N)C[C@@H]1O [Tobramycin] | 0.15 ± 0.005 | 1100 nM and 1130 nM | Mixed competitive | uncompetitive | -8.1 ± 0.1 | 3400 ± 631 | 0.7 ± 0.1 | -7.5 ± 0.1 | 0.111 ± 0.013 | around 6.5 ng/mL | challenges the growth | 5 to 7 | 0.0064 ± 0.0001 (≈ 0.0137 µM) | α value, mixed model of inhibition with ODLA ([1]; HepI WT): greater than one; Relative pixel density from cps band ([2]; 4 ng/mL tobramycin, relative to 0 ng/mL = 1): 1.752; Relative pixel density from cps band ([2]; 4.5 ng/mL tobramycin): 4.293; Relative pixel density from cps band ([2]; 5 ng/mL tobramycin): 7.121; Relative pixel density from cps band ([2]; 5.5 ng/mL tobramycin): 5.786; Relative pixel density from cps band ([2]; 6 ng/mL tobramycin): 3.692; Relative pixel density from cps band ([2]; 6.5 ng/mL tobramycin): 2.319; Relative pixel density from cps band ([2]; 7 ng/mL tobramycin): 1.163; Relative pixel density from cps band ([2]; 7.5 ng/mL tobramycin): 1.421; Relative pixel density from cps band ([2]; 8 ng/mL tobramycin): 1.641; Relative pixel density from cps band ([2]; 9 ng/mL tobramycin): 1.606; Concentration at which no LPS is detectible ([3]; E. coli K12): ≥ 7.5 ng/mL
